Where a name gives a salt, the structure may show the parent alone.

For one assay, the target named is T1, human hNET (Homo sapiens, UniProt P23975).
T1 construct: expressed in transfected cells; host or cells: MDCK (MDCK-Net6)
Put plainly: Norepinephrine (NE) uptake assay in MDCK-Net6 cells. Conditions: [3H]NE uptake, MDCK-Net6 cells stably transfected with hNET. It is filed as cell-based.

Another assay deals with T2, human 5-HT2A receptor (Homo sapiens, UniProt P28223).
T2 construct: expressed in transfected cells; host or cells: CHO
T2 sequence (P28223 whole entry): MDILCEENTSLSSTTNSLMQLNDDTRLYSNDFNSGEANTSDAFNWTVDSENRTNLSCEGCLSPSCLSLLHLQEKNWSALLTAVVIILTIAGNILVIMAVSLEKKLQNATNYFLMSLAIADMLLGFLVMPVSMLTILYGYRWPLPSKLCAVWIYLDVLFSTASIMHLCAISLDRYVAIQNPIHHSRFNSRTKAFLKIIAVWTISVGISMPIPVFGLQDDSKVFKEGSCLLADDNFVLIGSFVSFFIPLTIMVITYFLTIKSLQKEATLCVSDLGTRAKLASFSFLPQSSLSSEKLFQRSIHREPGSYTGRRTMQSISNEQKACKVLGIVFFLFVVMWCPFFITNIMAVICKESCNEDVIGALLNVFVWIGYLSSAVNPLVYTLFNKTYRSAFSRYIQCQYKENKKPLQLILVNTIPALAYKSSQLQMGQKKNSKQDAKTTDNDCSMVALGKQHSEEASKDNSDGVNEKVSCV
The assay can be described thus: 5-HT2A FLIPR assay (calcium response to DOI) in CHO cells. Conditions: for IC50: antagonist inhibition of 3 nM DOI stimulation, CHO cells, FLIPR. It is filed as cell-based. An outline of the steps:
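CHO cells loaded with calcium dye in HBSS/20 mM HEPES; FLIPR fluorescence recorded after compound addition (10^−10–10^−5 M) for 2 min to detect agonism, then after 3 nM DOI challenge for 5 min for antagonism. Data log transformed before analysis.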

T1 sequence (P23975 whole entry): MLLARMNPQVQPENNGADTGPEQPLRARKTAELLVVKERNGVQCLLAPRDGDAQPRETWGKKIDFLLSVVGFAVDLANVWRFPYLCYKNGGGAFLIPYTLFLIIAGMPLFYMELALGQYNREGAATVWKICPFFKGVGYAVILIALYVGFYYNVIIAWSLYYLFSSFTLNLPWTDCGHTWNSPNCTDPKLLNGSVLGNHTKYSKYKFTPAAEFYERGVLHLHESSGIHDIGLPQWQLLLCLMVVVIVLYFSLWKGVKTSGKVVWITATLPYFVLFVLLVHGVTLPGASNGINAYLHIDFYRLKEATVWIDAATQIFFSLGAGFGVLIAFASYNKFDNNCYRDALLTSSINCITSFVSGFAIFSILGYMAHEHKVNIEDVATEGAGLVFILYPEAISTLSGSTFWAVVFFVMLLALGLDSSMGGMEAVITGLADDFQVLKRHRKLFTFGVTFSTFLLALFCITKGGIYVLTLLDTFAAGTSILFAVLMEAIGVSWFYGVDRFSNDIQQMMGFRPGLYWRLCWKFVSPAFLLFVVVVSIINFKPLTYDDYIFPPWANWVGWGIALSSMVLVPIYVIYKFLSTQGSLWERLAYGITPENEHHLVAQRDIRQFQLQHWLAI

As a reminder, the EC50 is the midpoint of the concentration-response curve. A high value points to a need for much substance. As a reminder, the IC50 is the concentration needed to halve the response being measured. Consider `CNC[C@@H](O)[C@H](c1ccccc1)N1C(=O)C2(CCCCC2)c2cc(C#N)ccc21` [Example 107, 1′-[(1S,2R)-2-hydroxy-3-(methylamino)-1-phenylpropyl]-2′-oxo-1′,2′-dihydrospiro[cyclohexane-1,3′-indole]-5′-carbonitrile hydrochloride], for which the EC50 at human hNET came out at 349 nM. For the same molecule, the IC50 at human 5-HT2A receptor came to 168 nM.
A word on the inhibition: it is the share of the control response that was lost under treatment. `CNC[C@@H](O)[C@H](c1ccccc1)N1C(=O)C2(CCCCC2)c2ccc(C#N)cc21` [Example 108, 1′-[(1S,2R)-2-hydroxy-3-(methylamino)-1-phenylpropyl]-2′-oxo-1′,2′-dihydrospiro[cyclohexane-1,3′-indole]-6′-carbonitrile hydrochloride] displayed an EC50 at human hNET of 1260 nM. Besides, the inhibition at 1 µM on human 5-HT2A receptor (CHO, read-out: 5-HT2A Percentage inhibition at 1 μM) came out at 11%.
On to `CNC[C@@H](O)[C@H](c1ccccc1)N1C(=O)C2(CCCCC2)c2c1ccc(F)c2F` [Example 109, 4′,5′-difluoro-1′-[(1S,2R)-2-hydroxy-3-(methylamino)-1-phenylpropyl]spiro[cyclohexane-1,3′-indol]-2′(1′H)-one hydrochloride], for which the EC50 at human hNET came to 107 nM. The IC50 at human 5-HT2A receptor was determined as 1480 nM.
